Laboratory results from patent publication US7402548B2, “Benzoxazole compounds, process for producing the same and herbicides” (Kyoyu Agri Co., Ltd., priority 2000, dated 2008).

What was measured:
barnyard grass [1] = test: Herbicidal test for paddy field; type: in vivo, Eschinochloa crusgalli; settings: 500 g/ha, dropwise addition to paddy water at 1.5 leaf stage of barnyard grass; glass house 25° C., 3 weeks; rank 0-5 vs non-treated district
How it was run: (§1)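 Wettable-powder formulations in water with 0.05% surfactant were dripped onto flooded (3 cm) Ube alluvial-soil pots at 500 g/ha, applied at barnyard grass 1.5-leaf stage. Plants were kept in a glasshouse at 25° C. for 3 weeks. Damage was scored 0 (normal) to 5 (all killed) versus untreated plants.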

Large crabgrass [2] = test: Soil treatment test for upland field; type: in vivo, Digitaria adscendens; set-up: key: 0 = normal development, 5 = all killed; settings: 500 g/ha, 3 weeks, glass house 25° C.
How it was run: (§2)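 Seeds were sown in alluvial soil in pots, and a wettable powder diluted in water with 0.05% surfactant was sprayed evenly on the soil surface at 500 g/ha. Plants were kept in a glass house at about 25° C for 3 weeks, then damage was scored 0–5 against untreated controls.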

common lambsquarters [3] = test: Soil treatment test for upland field; type: in vivo, Chenopodium album; set-up: key: 0 = normal development, 5 = all killed; settings: 500 g/ha, 3 weeks, glass house 25° C.
How it was run: as §2

bulrush = test: Herbicidal test for paddy field; type: in vivo, Scrips juncoides; settings: 500 g/ha, dropwise addition to paddy water at 1.5 leaf stage of barnyard grass; glass house 25° C., 3 weeks; rank 0-5 vs non-treated district
How it was run: as §1

annual bluegrass [4] = test: Foliar spread test for upland field; type: in vivo, Poa annua; set-up: key: 0 = normal development, 5 = all killed (6 ranks vs. untreated); settings: foliar spray, 500 ppm, 3 weeks, glass house 25° C.
How it was run: (§3)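 Scores on a 0–5 scale (0 normal development, 5 all killed), relative to untreated controls, were taken 3 weeks post-treatment in a 25 °C glass house. Treatment was a uniform foliar spray at 500 ppm (0.5% surfactant) onto roughly 2-week-old soil-grown plants.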

livid amaranth [5] = test: Foliar spread test for upland field; type: in vivo, Amaranthus lividus; set-up: key: 0 = normal development, 5 = all killed (6 ranks vs. untreated); settings: foliar spray, 500 ppm, 3 weeks, glass house 25° C.
How it was run: as §3

solgum [6] = test: Foliar spread test for upland field; type: in vivo; set-up: key: 0 = normal development, 5 = all killed (6 ranks vs. untreated); settings: foliar spray, 500 ppm, 3 weeks, glass house 25° C.
How it was run: as §3

corn [7] = test: Foliar spread test for upland field; type: in vivo; set-up: key: 0 = normal development, 5 = all killed (6 ranks vs. untreated); settings: foliar spray, 500 ppm, 3 weeks, glass house 25° C.
How it was run: as §3

sugar beat [8] = test: Foliar spread test for upland field; type: in vivo; set-up: key: 0 = normal development, 5 = all killed (6 ranks vs. untreated); settings: foliar spray, 500 ppm, 3 weeks, glass house 25° C.
How it was run: as §3

soybean = test: Foliar spread test for upland field; type: in vivo; set-up: key: 0 = normal development, 5 = all killed (6 ranks vs. untreated); settings: foliar spray, 500 ppm, 3 weeks, glass house 25° C.
How it was run: as §3

wheat [9] = test: Foliar spread test for upland field; type: in vivo; set-up: key: 0 = normal development, 5 = all killed (6 ranks vs. untreated); settings: foliar spray, 500 ppm, 3 weeks, glass house 25° C.
How it was run: as §3

cotton = test: Foliar spread test for upland field; type: in vivo; set-up: key: 0 = normal development, 5 = all killed (6 ranks vs. untreated); settings: foliar spray, 500 ppm, 3 weeks, glass house 25° C.
How it was run: as §3

Cassia obtusifolia = test: Foliar spread test for upland field; type: in vivo; set-up: key: 0 = normal development, 5 = all killed; settings: foliar spray, 500 ppm, 3 weeks, glass house 25° C.
Experimental: (§4) The herbicidal effects are evaluated according to the following 6 ranks as compared with non-treated district. (0: normal development, 1: Less damaged, 2: Slightly damaged, 3: Moderately damaged, 4: Severely damaged, 5: All killed). Incidentally, “-” in the column means not investigated.
(§5) Wagner pots, each having an area of 1/5000 are, were packed with volcanic ash soil and then each seed of corn, soybean, cotton, wheat, solgum, sugar beat, Large crabgrass, barnyardgrjass, green foxtail, blackgrass, annual bluegrass, common lambsquarters, livid amaranth, velvetleaf, morning glory, Xanthium pensylvanicum and Cassia obtusifolia was planted, covered with soil and grown in a glass house at an average temperature of 25° C. for about 2 weeks.
(§6) Each wettable powder of the desired compounds (I) shown in Tables 1 to 21, 24, 25, 28 and 29 prepared in accordance with Example 2 was diluted to 500 ppm with water containing a surfactant (0.5%) and then uniformly sprayed on the above respective plants.
(§7) After these plants were controlled in a glass house at an average temperature of 25° C. for 3 weeks, the herbicidal effects thereof were investigated.
(§8) The herbicidal effects were evaluated according to the evaluation method described in the above (1).

Xanthium pensylvanicum = test: Foliar spread test for upland field; type: in vivo; set-up: key: 0 = normal development, 5 = all killed; settings: foliar spray, 500 ppm, 3 weeks, glass house 25° C.
Experimental: as §4, §5, §6, §7, §8

annual bluegrass [10] = test: Soil treatment test for upland field; type: in vivo, Poa annua; set-up: key: 0 = normal development, 5 = all killed; settings: 500 g/ha, 3 weeks, glass house 25° C.
How it was run: as §2

[11] = test system: sicklepod (Cassia obtusifolia); test: Soil treatment test for upland field; type: in vivo; settings: 500 g/ha, 3 weeks, glass house 25° C.
Experimental: as §4
(§9) Wagner pots, each having an area of 1/5000 are, were packed with Ube soil (alluvial soil), and then each seed of corn, soybean, cotton, wheat, solgum, sugar beat, Large crabgrass, barnyard grass, green foxtail, blackgrass, annual bluegrass, common lambsquarters, livid amaranth, velvetleaf, morning glory, common Cocklebur (Xanthium strumarium) and sicklepod (Cassia obtusifolia) were planted and covered with soil.
(§10) Each wettable powder of the desired compounds (I) shown in Tables 1 to 21, 24, 25, 28 and 29 prepared in accordance with Example 2 was diluted with water containing a surfactant (0.05%) and uniformly sprayed on the surface of each soil so that an effective concentration of the compound (I) in each herbicide became 500 g/ha.
(§11) These plants were controlled in a glass house at an average temperature of 25° C. for 3 weeks, and then herbicidal effects thereof were investigated.
as §8

[12] = test system: common Cocklebur (Xanthium strumarium); test: Soil treatment test for upland field; type: in vivo; settings: 500 g/ha, 3 weeks, glass house 25° C.
Experimental: as §4, §9, §10, §11, §8

blackgrass [13] = test: Foliar spread test for upland field; type: in vivo, Alopecurus aegualis; set-up: key: 0 = normal development, 5 = all killed (6 ranks vs. untreated); settings: foliar spray, 500 ppm, 3 weeks, glass house 25° C.
How it was run: as §3

green foxtail [14] = test: Foliar spread test for upland field; type: in vivo, Setaria viridis; set-up: key: 0 = normal development, 5 = all killed (6 ranks vs. untreated); settings: foliar spray, 500 ppm, 3 weeks, glass house 25° C.
How it was run: as §3

velvetleaf [15] = test: Foliar spread test for upland field; type: in vivo, Abutilon theophrasti; set-up: key: 0 = normal development, 5 = all killed (6 ranks vs. untreated); settings: foliar spray, 500 ppm, 3 weeks, glass house 25° C.
How it was run: as §3

barnyard grass [16] = test: Soil treatment test for upland field; type: in vivo, Eschinochloa crusgalli; set-up: key: 0 = normal development, 5 = all killed; settings: 500 g/ha, 3 weeks, glass house 25° C.
How it was run: as §2

Large crabgrass [17] = test: Foliar spread test for upland field; type: in vivo, Digitaria adscendens; set-up: key: 0 = normal development, 5 = all killed (6 ranks vs. untreated); settings: foliar spray, 500 ppm, 3 weeks, glass house 25° C.
How it was run: as §3

green foxtail [18] = test: Soil treatment test for upland field; type: in vivo, Setaria viridis; set-up: key: 0 = normal development, 5 = all killed; settings: 500 g/ha, 3 weeks, glass house 25° C.
How it was run: as §2

blackgrass [19] = test: Soil treatment test for upland field; type: in vivo, Alopecurus aegualis; set-up: key: 0 = normal development, 5 = all killed; settings: 500 g/ha, 3 weeks, glass house 25° C.
How it was run: as §2

barnyardgrjass = test: Foliar spread test for upland field; type: in vivo, Eschinochloa crusgalli; set-up: key: 0 = normal development, 5 = all killed (6 ranks vs. untreated); settings: foliar spray, 500 ppm, 3 weeks, glass house 25° C.
How it was run: as §3

velvetleaf [20] = test: Soil treatment test for upland field; type: in vivo, Abutilon theophrasti; set-up: key: 0 = normal development, 5 = all killed; settings: 500 g/ha, 3 weeks, glass house 25° C.
How it was run: as §2

morning glory [21] = test: Soil treatment test for upland field; type: in vivo, Ipomoea spps.; set-up: key: 0 = normal development, 5 = all killed; settings: 500 g/ha, 3 weeks, glass house 25° C.
How it was run: as §2

arrowhead = test: Herbicidal test for paddy field; type: in vivo, Sagittaria pygmaea; settings: 500 g/ha, dropwise addition to paddy water at 1.5 leaf stage of barnyard grass; glass house 25° C., 3 weeks; rank 0-5 vs non-treated district
Experimental: Wagner pots, each having an area of 1/5000 are, were packed with Ube soil (alluvial soil) and planted with seeds or tubers of young rice plant, barnyard grass, bulrush, Cyperus serotinus Rottb., arrowhead and monochoria. Then, the pots were filled with water to a depth of 3 cm.
as §10, with “Compounds” for “compounds”, “subjected to dropwise addition treatment by using pipet” for “uniformly sprayed on the surface of each soil”, “g/ha at 1.5 leaf stage of barnyard grass.” for “g/ha.”
as §11, §4

common lambsquarters [22] = test: Foliar spread test for upland field; type: in vivo, Chenopodium album; set-up: key: 0 = normal development, 5 = all killed (6 ranks vs. untreated); settings: foliar spray, 500 ppm, 3 weeks, glass house 25° C.
How it was run: as §3

solgum [23] = test: Soil treatment test for upland field; type: in vivo; set-up: key: 0 = normal development, 5 = all killed; settings: 500 g/ha, 3 weeks, glass house 25° C.
How it was run: as §2

corn [24] = test: Soil treatment test for upland field; type: in vivo; set-up: key: 0 = normal development, 5 = all killed; settings: 500 g/ha, 3 weeks, glass house 25° C.
How it was run: as §2

sugar beat [25] = test: Soil treatment test for upland field; type: in vivo; set-up: key: 0 = normal development, 5 = all killed; settings: 500 g/ha, 3 weeks, glass house 25° C.
How it was run: as §2

wheat [26] = test: Soil treatment test for upland field; type: in vivo; set-up: key: 0 = normal development, 5 = all killed; settings: 500 g/ha, 3 weeks, glass house 25° C.
How it was run: as §2

livid amaranth [27] = test: Soil treatment test for upland field; type: in vivo, Amaranthus lividus; set-up: key: 0 = normal development, 5 = all killed; settings: 500 g/ha, 3 weeks, glass house 25° C.
How it was run: as §2

morning glory [28] = test: Foliar spread test for upland field; type: in vivo, Ipomoea spps.; set-up: key: 0 = normal development, 5 = all killed (6 ranks vs. untreated); settings: foliar spray, 500 ppm, 3 weeks, glass house 25° C.
How it was run: as §3

Cyperus serotinus Rottb. = test: Herbicidal test for paddy field; type: in vivo; settings: 500 g/ha, dropwise addition to paddy water at 1.5 leaf stage of barnyard grass; glass house 25° C., 3 weeks; rank 0-5 vs non-treated district
How it was run: as §1

| Compound | Effects Barnyardgrass (barnyard grass [1]) | Effects Large crabgrass (Large crabgrass [2]) | Effects Common lambsquarters (common lambsquarters [3]) | Effects Bulrush (bulrush) | Effects Annual bluegrass (annual bluegrass [4]) | Effects Livid amaranth (livid amaranth [5]) | Effects Solgum (solgum [6]) | Effects Corn (corn [7]) | Effects Sugar beat (sugar beat [8]) | Effects Soybean (soybean) | Effects Wheat (wheat [9]) | Effects Sotton (cotton) | Effects Sicklepod (Cassia obtusifolia) | Effects Common Cocklebur (Xanthium pensylvanicum) | Effects Annual bluegrass (annual bluegrass [10]) | Effects Sicklepod [11] | Effects Blackgrass (blackgrass [13]) | Effects Green foxtail (green foxtail [14]) | Effects Velvetleaf (velvetleaf [15]) | Effects Barnyardgrass (barnyard grass [16]) | other results |
| --- | --- | --- | --- | --- | --- | --- | --- | --- | --- | --- | --- | --- | --- | --- | --- | --- | --- | --- | --- | --- | --- |
| Fc1ccc2oc(-c3cccc(Oc4cccc(C(F)(F)F)c4)n3)nc2c1 [I-a-2] | 4 | 5 | 5 | 3 | 4 | 5 | 2 | 2 | 4 | 3 | 2 | 4 | 4 | 4 | 5 | 3 | 3 | 5 | 4 | 4 | Effects Common Cocklebur [12]: 3; Effects Large crabgrass (Large crabgrass [17]): 4; Effects Green foxtail (green foxtail [18]): 5; Effects Blackgrass (blackgrass [19]): 5; Effects Barnyardgrass (barnyardgrjass): 3; Effects Velvetleaf (velvetleaf [20]): 5; Effects Morning glory (morning glory [21]): 5; Effects Arrowhead (arrowhead): 1; Effects Common lambsquarters (common lambsquarters [22]): 5; Effects Solgum (solgum [23]): 1; Effects Corn (corn [24]): 2; Effects Sugar beat (sugar beat [25]): 5; Effects Wheat (wheat [26]): 1; Effects Livid amaranth (livid amaranth [27]): 5; Effects Morning glory (morning glory [28]): 5 |
| COc1ccc2oc(-c3cccc(Oc4cccc(C(F)(F)F)c4)n3)nc2c1 [I-a-4] | 0 | 0 | 0 | 0 | 1 | 5 | 1 | 1 | 4 | 2 | 1 | 2 | 4 | 3 | 0 | 0 | 0 | 1 | 3 | 3 | Effects Cyperus serotinus Rottb. (Cyperus serotinus Rottb.): 0; Effects Large crabgrass (Large crabgrass [17]): 1; Effects Green foxtail (green foxtail [18]): 1; Effects Blackgrass (blackgrass [19]): 0; Effects Barnyardgrass (barnyardgrjass): 0; Effects Velvetleaf (velvetleaf [20]): 1; Effects Morning glory (morning glory [21]): 1; Effects Arrowhead (arrowhead): 0; Effects Common lambsquarters (common lambsquarters [22]): 5; Effects Solgum (solgum [23]): 0; Effects Corn (corn [24]): 0; Effects Sugar beat (sugar beat [25]): 0; Effects Morning glory (morning glory [28]): 5 |
